{"source": "patent US11846630B2", "about": "“Coordinately-ordered single cells with individual identities for high-throughput assay” (Northeastern University, priority 2019, dated 2023)", "key": {"HeLa cells": {"system": "HeLa cells", "assay": "ROS assay (CellROX Orange) on coordinated single cell pattern", "conditions": "1 μM doxorubicin for 6 hours"}, "OT-1 cells": {"system": "OT-1 cells", "assay": "Microwell ELISA immunoassay of interferon-γ secreted by peptide-stimulated OT-1 cells", "format": "cell-based", "conditions": "OVA peptide concentration 0.5, 1, 2, 4, 8 μg/mL; FIG. 12, panel C", "text": "Surface of the microwells can be chemically modified with capture agents, such as antibodies, to detect cytokines secreted by T cells during the T cell-cancer cells interaction. […] The cytokine detection is based on ELISA sandwich structure and quantified based on the fluorescence intensity of Avidin Texas red. Due to the existence of BSA on the top layer, the majority of antibodies were only absorbed on the inner surface of the microwells (bottom and inside wall of microwell), which enhanced capturing signals and reduced background. The location of the capture antibody after BSA saturation was indicated using Rhodamine-BSA and FITC-Antibody and shown in FIG. 11, panel B, in which BSA only covered the top layer of microwell and the green fluorescent capture antibody was mainly present inside the microwells after BSA saturation, enhancing the signals from the microwells. The fluorescence images of interferon-γ at two concentrations are shown in FIG. 11, panel C, and the standard curve of fluorescence versus interferon-γ concentration is presented in FIG. 11, panel D. According to the standard curve, imaged-based ELISA using the microwells detected a wide range of the cytokine concentrations from 0.1 ng/mL to 5 ng/mL, and the concentrations determined based on fluorescence intensity ranged from 0.8×10^5 to 2.7×10^5. […]"}}, "data": [{"molecule": "COc1cccc2c1C(=O)c1c(O)c3c(c(O)c1C2=O)C[C@@](O)(C(=O)CO)C[C@@H]3O[C@H]1C[C@H](N)[C@H](O)[C@H](C)O1", "note": "[doxorubicin]", "values": [{"measurement": "ROS orange signal intensity after subsequent X-ray exposure", "setting": "HeLa cells; then X-ray 10.8 Gy, compared with doxorubicin alone", "result": "much higher level of damage than that of doxorubicin alone"}, {"measurement": "ROS orange signal", "setting": "HeLa cells; identical cell analysis, FIG. 3", "result": "increases"}]}, {"molecule": "SINFEKL [OVA peptide, OVA peptide (SINFEKL) used to stimulate OT-1 cells to secrete cytokines]", "values": [{"measurement": "intensity of the interferon-γ fluorescence", "setting": "OT-1 cells", "result": "increased"}]}]}
